According to paper PMC11375794, “Discovery of new Hsp90–Cdc37 protein–protein interaction inhibitors: in silico screening and optimization of anticancer activity” (RSC Advances, 2024):

Experiments:
Format in all cases: cell-based
[1] = tested on: Hsp90 client protein levels (Cdk4, Akt, c-Raf, ERα, IGF1R) and Hsp70, Hsp90 in MCF-7 cells; test: Western blot of Hsp90 client proteins and heat shock proteins; conditions: for ERα level: MCF-7, 20 μM; for heat shock response (Hsp70 and Hsp90 levels): MCF-7, 24 hours
Protocol: MCF-7 cells were treated with compounds 8c (20 μM and 50 μM), 13g (20 μM and 50 μM) and DDO-5936 (20 μM) or 0.5% DMSO as a negative control. The cells were incubated with the compounds or negative control for 24 hours. After incubation, the cells were rinsed with PBS (Gibco, Thermo Fisher Scientific, Waltham, MA, USA) and lysed using RIPA buffer containing 50 mM Tris–HCl pH 7.4, 150 mM NaCl, 1% NP-40, 0.5% sodium deoxycholate, and 1 mM EDTA. The RIPA buffer was further supplemented with Halt™ Protease Inhibitor Cocktail and Halt™ Phosphatase Inhibitor Cocktail (both from Thermo Fisher Scientific, Waltham, MA, USA) at a 1 : 100 dilution. The lysates were then frozen for at least 24 hours. Upon thawing, the lysates were sonicated and centrifuged at 15 000 rpm for 20 minutes at 4 °C. Only the supernatants were collected, and protein concentration was measured using the DC protein assay (Bio-Rad, Hercules, California, USA). Proteins (20 μg) were separated by SDS-PAGE on a 10% acrylamide/bisacrylamide gel, running at 80 V for 15 minutes followed by 130 V for 60 minutes. The separated proteins were then transferred onto a nitrocellulose membrane using the iBlot 2 Dry Blotting System (Thermo Fisher Scientific, Waltham, MA, USA). The membranes were blocked with 5% BSA for 1 hour at room temperature to prevent nonspecific binding. Primary antibodies were then added, and the membranes were incubated overnight at 4 °C. The primary antibodies (Cell Signaling, Danvers, MA, USA) used included anti-β-ActinMouse mAb (1 : 5000), anti-Hsp90 Rabbit mAb (1 : 1000), anti-Hsp70 Mouse mAb (1 : 1000), anti-IGF1R Rabbit (1 : 1000), anti-CDK4 Rabbit (1 : 1000), anti-ERα Mouse mAb (1 : 1000), anti-Akt Rabbit mAb (1 : 1000), and anti-c-Raf Rabbit mAb (1 : 1000). Secondary antibodies included anti-rabbit IgG, HRP-linked antibody (1 : 10 000), and anti-mouse IgG, HRP-linked antibody (1 : 10 000), which were incubated with the membranes for 1 hour at room temperature. Following washes, SuperSignal™ West Femto Maximum Sensitivity Substrate (Thermo Fisher Scientific, Waltham, MA, USA) was applied. Visualization of the blots was performed using the UVITEC Cambridge Imaging System (UVITEC, Cambridge, UK), and densitometric analysis of the western blot bands was conducted using NineAlliance software. Relative protein densities were calculated in relation to β-actin, used as a loading control.

[2] = tested on: Ewing sarcoma cell line SK-N-MC; test: MTS cell viability (antiproliferative) assay in SK-N-MC; conditions: Homo sapiens, SK-N-MC, 72 hours, mean ± SD
Protocol: Hormone-positive breast cancer cell line MCF-7 (ATCC-HTB-22; ATCC) was grown in Dulbecco's Modified Eagle's Medium (DMEM), while Ewing sarcoma cell line SK-N-MC (a kind gift from Beat Schäfer) and THP-1 (ATCC-TIB-202; ATCC) cells were grown in Roswell Park Memorial Institute (RPMI) 1640. The medium was supplemented with 10% heat-inactivated fetal bovine serum (Gibco, Thermo Fisher Scientific, Waltham, MA, USA), 100 U per mL penicillin, 100 μg per mL streptomycin, and 2 mM L-glutamine (all from Sigma-Aldrich, St. Louis, MO, USA). All cell lines were incubated at 37 °C in a 5% CO2 atmosphere.
The antiproliferative activity of the compounds was evaluated against MCF-7 (ATCC-HTB-22; ATCC), SK-N-MC (a kind gift from Beat Schäfer) and THP-1 (ATCC-TIB-202; ATCC) cancer cell lines using the MTS assay (Promega, Madison, WI, USA). Cells were seeded in 96-well plates at a density of 2 × 10^4 cells per mL in 100 μL of growth medium for THP-1 and were treated with compounds and controls directly, while 3 × 10^3 cells per mL for MCF-7 and SK-N-MC were seeded in 100 μL of growth medium and allowed to adhere overnight following the treatment. In all cases the cells were treated with respective newly prepared compounds, positive controls (17-DMAG for MCF-7 and SK-N-MC; PU-H71 for THP-1) and a vehicle control (0.5% DMSO). The incubation time after treatment was 72 hours, then CellTiter96® Aqueous One Solution Reagent (Promega, Madison, WI, USA) was added to each well. Following a 3 hours incubation, absorbance was measured at 492 nm using BioTek's Synergy™ 4 Hybrid Microplate Reader (Winooski, VT, USA). The measurements were performed in two biological repetitions and each time the experiment was performed in a triplicate. The IC50 values, representing the concentration of inhibitor required for half-maximal inhibition, are the average of three independent experiments and were calculated using GraphPad Prism 9.5.0 software (San Diego, CA, USA).

[3] = tested on: SK-N-MC cells; test: Apoptosis assay, annexin V–PE/SytoxBlue staining, flow cytometry
Protocol: Apoptosis of SK-N-MC cells was evaluated by detecting phosphatidylserines using R-phycoerythrin–annexin V conjugate (R-PE annexin V; Invitrogen, Carlsbad, CA, USA) and nucleic acids in dead cells using SytoxBlue Dead Cell Stain (Invitrogen, Carlsbad, CA, USA), according to the manufacturer's instructions. Briefly, 2.5 × 10^5 SK-N-MC cells were seeded in six-well plates. After 24 hours, cells were washed with PBS and treated with 8c and 13g in 10 and 20 μM concentrations for 24 and 48 hours. The medium with detached cells was then collected, and attached cells were harvested and combined with the detached cells. Following two washing steps with cold PBS, cells were resuspended in 100 μL annexin-binding buffer (Invitrogen, Carlsbad, CA, USA) containing 2.5 μL annexin V–R-PE solution and 750 nM SytoxBlue, and incubated in the dark for 15 minutes at room temperature. Before measurement, 200 μL of annexin-binding buffer was added. A minimum of 10 000 events were collected using a flow cytometer (Attune NxT; Invitrogen, Carlsbad, CA, USA). Annexin V (ANV)-/SYTOX Blue (SB)-indicates viable cells, ANV+/SB− indicates early apoptotic cells, ANV+/SB+ indicates late apoptotic cells, and ANV−/SB+ indicates necrotic cells.

SMILES	ERα level ([1]; 24 hours)	Hsp70 levels ([1]; MCF-7, 50 μM, 24 hours)	concentration of kinase clients Cdk4, c-Raf, IGF1R, and Akt ([1]; MCF-7, 50 μM, 24 hours)	heat shock response (Hsp70 and Hsp90 levels) [1]	IC50 [2] [µM]	induction of apoptosis (qualitative) ([3]; 10 μM and 20 μM, 24 and 48 hours)	proportion of apoptotic cells ([3]; 20 μM, 24 hours) [%]	proportion of apoptotic cells ([3]; 20 μM, 48 hours) [%]	proportion of apoptotic cells ([3]; 10 μM, 24 hours) [%]	proportion of apoptotic cells ([3]; 10 μM, 48 hours) [%]
CN(CCOc1ccccc1)C(=O)c1csc(Nc2cc(N3CCNCC3)ncn2)n1 [Compound 8c, N-Methyl-N-(2-phenoxyethyl)-2-((6-(piperazin-1-yl)pyrimidin-4-yl)amino)thiazole-4-carboxamide]	significantly influenced	statistically insignificant decrease	decreased	do not induce a heat shock response	12.8 ± 0.9	significantly induced apoptosis	87.5	87.7		
O=C(NCCOc1ccccc1)c1ccc(Nc2cc(N3CCNCC3)ncn2)cc1 [Compound 13g, N-(2-Phenoxyethyl)-4-((6-(piperazin-1-yl)pyrimidin-4-yl)amino)benzamide]	significantly influenced		decreased	do not induce a heat shock response	20 ± 1.5		42.8	56.8	27	11.4
